Reference: patent publication US11845760B2, “PRMT5 inhibitors” (AMGEN INC., priority 2020, dated 2023)
Where two headings read alike, the source gives them in different places.

Experiments:
HCT116 WT cells = experiment: HCT116 WT cell line proliferation (CellTiter-Glo cell viability, 6 days); assay type: cell-based; settings: HCT116 WT (parent) cells, 6 days of treatment, CellTiter-Glo cell viability, read-out: HCT-116 WT IC50
Protocol: (§1) To assess selective anti-proliferative activity of compounds of the invention in cells that have loss expression of MTAP, an HCT-116 isogenic cell line pair was utilized where one cell line was engineered to genetically knockout both MTAP alleles. Cell viability was then assessed in both the parent HCT-116 cell line and the MTAP null cell line after 6 days of treatment with compounds of the present invention. Selective anti-proliferative activity in the MTAP null cell line indicates MTA-cooperative inhibition of PRMT5 and ability to inhibit growth of cancer cells that have loss of MTAP.
(§2) HCT116 MTAP null and WT cells were seeded in 96-well tissue culture plates in RPMI 1640 media+10% fetal bovine serum. Plates were incubated overnight at 37° C. and 5% CO2. Cells were then treated with an 8- or 9-point serial dilution of compound, using a top concentration of 1, or 10 μM, 1:3 serial dilution steps and, a DMSO-only control. Cells were incubated in the presence of drug for 6 days. Effects on cell viability were measured with the CellTiter-Glo® Luminescent Cell Viability Assay (Promega) per manufacturer's recommendation. Assay plates were read on an EnVision™ Multilabel Reader using the Ultra-Sensitive luminescence module. IC50 values were calculated with GraphPad Prism v 5.01 using symmetrical sigmoidal dose-response least squares fit with Hill slope fixed to −1 and top constrain to 100% or GeneData Screener using a 4-parameter logistic model to fit dose response curves.
(§3) Alternatively, compounds could be assayed with a 384 well plate format:
(§4) Compounds were pre-spotted into 384 well plates with a 22-point serial dilution of compound, using a top concentration of 10 or 50 μM, 1:2 serial dilution steps and, a DMSO-only control. HCT116 MTAP null and WT cells were then seeded as above and after 6 days effects on cell viability were measured with the CellTiter-Glo® Luminescent Cell Viability Assay (Promega). Assay plates were read as above and IC50 values were calculated with GeneData Screener using a 4-parameter logistic model to fit dose response curves. The reported IC50 represents the value where the curve transits 50% of control.

HCT116 MTAP null cells = experiment: HCT116 MTAP null cell line proliferation (CellTiter-Glo cell viability, 6 days); assay type: cell-based; settings: HCT116 MTAP null cells, 6 days of treatment, CellTiter-Glo cell viability, read-out: HCT-116 MTAP null IC50
Protocol: as §1, §2, §3, §4

| SMILES | IC50 (HCT116 WT cells) [nM] | IC50 (HCT116 MTAP null cells) [nM] | IC50 (HCT116 WT cells; Homo sapiens, HCT-116, 144 h) [nM] | IC50 (HCT116 MTAP null cells; HCT116-MTAP null, 144 h) [nM] |
| --- | --- | --- | --- | --- |
| C[C@@H]1COC[C@H](c2ccc(C(F)(F)F)cc2F)N1C(=O)c1ccc2nc(N)c3c(c2c1)COC3 (racemic) [Example 333, (4-amino-1,3-dihydrofuro[3,4-c]quinolin-8-yl)((3R,5S)-3-(2-fluoro-4-(trifluoromethyl)phenyl)-5-methyl-4-morpholinyl)methanone and (4-amino-1,3-dihydrofuro[3,4-c]quinolin-8-yl)((3S,5R)-3-(2-fluoro-4-(trifluoromethyl)phenyl)-5-methyl-4-morpholinyl)methanone] | 1440 | 58 | – | – |
| C[C@H]1COC[C@@H](c2ccc(C(F)(F)F)nc2)N1C(=O)c1cc2c3c(c(N)nc2cc1Cl)COC3 (racemic) [Example 302, (4-amino-7-chloro-1,3-dihydrofuro[3,4-c]quinolin-8-yl)((3R,5S)-3-methyl-5-(6-(trifluoromethyl)-3-pyridinyl)-4-morpholinyl)methanone and (4-amino-7-chloro-1,3-dihydrofuro[3,4-c]quinolin-8-yl)((3S,5R)-3-methyl-5-(6-(trifluoromethyl)-3-pyridinyl)-4-morpholinyl)methanone] | – | – | 167 | 11 |
| Cn1ncc2c(N)nc3cc(F)c(C(=O)N4CC[C@@H](Cc5ccc(C(F)(F)F)cc5)C4)cc3c21 (single isomer, unassigned) [Example 469] | – | – | 4950 | 243 |
| Nc1nc2cnc(C(=O)N3CCCC[C@@H]3c3ccc(C(F)(F)F)cc3)cc2c2c1COC2 (single isomer, unassigned) [Example 485] | – | – | 1740 | 40 |
| CC[C@@H]1CN(C(=O)c2ccc3nc(N)c4c(c3c2)CO[C@@H]4C)C[C@H]1c1ccc(C)cc1 (single isomer, unassigned) [Example 461] | – | – | 14600 | 864 |
| Nc1nc2ccc(C(=O)N3CCOC[C@@H]3c3ccc(C(F)(F)F)cc3)cc2c2c1COC2 (single isomer, unassigned) [Example 456] | – | – | 4360 | 102 |
| C[C@H]1COC[C@@H](c2ccc(C(F)(F)F)nc2)N1C(=O)c1cc2c3c(c(N)nc2cn1)COC3 (racemic) [Example 340, (4-amino-1,3-dihydrofuro[3,4-c][1,7]naphthyridin-8-yl)((3R,5S)-3-methyl-5-(6-(trifluoromethyl)-3-pyridinyl)-4-morpholinyl)methanone and (4-amino-1,3-dihydrofuro[3,4-c][1,7]naphthyridin-8-yl)((3S,5R)-3-methyl-5-(6-(trifluoromethyl)-3-pyridinyl)-4-morpholinyl)methanone] | – | – | 6440 | 71 |
| C[C@@H]1COC[C@H](c2ccc(OC(F)(F)F)cn2)N1C(=O)c1cc2c3c(c(N)nc2cn1)COC3 (racemic) [Example 359, (4-amino-1,3-dihydrofuro[3,4-c][1,7]naphthyridin-8-yl)((3R,5S)-3-methyl-5-(5-(trifluoromethoxy)-2-pyridinyl)-4-morpholinyl)methanone and (4-amino-1,3-dihydrofuro[3,4-c][1,7]naphthyridin-8-yl)((3S,5R)-3-methyl-5-(5-(trifluoromethoxy)-2-pyridinyl)-4-morpholinyl)methanone] | – | – | 765 | 22 |
| Nc1nc2ccc(C(=O)N3CCOCC3c3ccccc3Cl)cc2c2c1COC2 (racemic) [Example 360, (4-amino-1,3-dihydrofuro[3,4-c]quinolin-8-yl)-[rac-(3S)-3-(2-chlorophenyl)morpholin-4-yl]methanone] | – | – | – | 1050 |
| CC(C)Oc1ccc([C@H]2COCCN2C(=O)c2cc3c4c(c(N)nc3cn2)COC4)cn1 (mixture of isomers) [Example 323, (4-amino-1,3-dihydrofuro[3,4-c][1,7]naphthyridin-8-yl)((3R)-3-(6-(2-propanyloxy)-3-pyridinyl)-4-morpholinyl)methanone and (4-amino-1,3-dihydrofuro[3,4-c][1,7]naphthyridin-8-yl)((3S)-3-(6-(2-propanyloxy)-3-pyridinyl)-4-morpholinyl)methanone] | – | – | – | 397 |
| Nc1nc2ccc(C(=O)N3CCOCC3c3cccc(Br)c3)cc2c2c1COC2 (racemic) [Example 366, (4-amino-1,3-dihydrofuro[3,4-c]quinolin-8-yl)-[rac-(3S)-3-(3-bromophenyl)morpholin-4-yl]methanone] | – | – | – | 363 |
| C[C@@H]1COC[C@H](c2cc(F)cc(F)c2)N1C(=O)c1cc2c3c(c(N)nc2cn1)[C@@H](C)OC3 (racemic) [Example 324, ((3R)-4-amino-3-methyl-1,3-dihydrofuro[3,4-c][1,7]naphthyridin-8-yl)((3R,5S)-3-(3,5-difluorophenyl)-5-methyl-4-morpholinyl)methanone and ((3R)-4-amino-3-methyl-1,3-dihydrofuro[3,4-c][1,7]naphthyridin-8-yl)((3S,5R)-3-(3,5-difluorophenyl)-5-methyl-4-morpholinyl)methanone] | – | – | – | 186 |
| Nc1nc2ccc(C(=O)N3CCOCC3c3ccc(Br)cc3)cc2c2c1COC2 (racemic) [Example 367, (4-amino-1,3-dihydrofuro[3,4-c]quinolin-8-yl)-[rac-(3S)-3-(4-bromophenyl)morpholin-4-yl]methanone] | – | – | – | 368 |
| Cc1ccc(C2COCCN2C(=O)c2ccc3nc(N)c4c(c3c2)COC4)cc1 (racemic) [Example 361, (4-amino-1,3-dihydrofuro[3,4-c]quinolin-8-yl)-[rac-(3S)-3-(p-tolyl)morpholin-4-yl]methanone] | – | – | – | 839 |

Other lines, results leading:

| IC50 (HCT116 WT cells) [nM] | IC50 (HCT116 MTAP null cells) [nM] | IC50 (HCT116 WT cells; Homo sapiens, HCT-116, 144 h) [nM] | IC50 (HCT116 MTAP null cells; HCT116-MTAP null, 144 h) [nM] | SMILES |
| --- | --- | --- | --- | --- |
| – | – | > 10000 | > 10000 | Nc1nc2cnc(C(=O)N3CCC(F)(F)C[C@H]3c3ccc(OC(F)(F)F)cc3)cc2c2c1COC2 (single isomer, unassigned) [Example 601] |
| – | – | > 10000 | 807 | Nc1nc2cnc(C(=O)N3CCC(F)(F)C[C@@H]3c3ccc(C(F)(F)F)cc3)cc2c2c1COC2 (single isomer, unassigned) [Example 598] |
| – | – | 26 | 4 | C[C@@H]1COC[C@H](c2ccc(C(F)(F)F)cn2)N1C(=O)c1cc2c(cc1F)nc(N)c1cnn(C)c12 [Example 519, (4-amino-7-fluoro-1-methyl-1H-pyrazolo[4,3-c]quinolin-8-yl)((3R,5S)-3-methyl-5-(5-(trifluoromethyl)-2-pyridinyl)-4-morpholinyl)methanone] |
| – | – | 503 | 27 | C[C@@H]1COC[C@H](c2ccc(C(F)(F)F)cc2)N1C(=O)c1ccc2nc(N)c3c(c2c1)COC3 [Example 527, (4-amino-1,3-dihydrofuro[3,4-c]quinolin-8-yl)((3R,5S)-3-methyl-5-(4-(trifluoromethyl)phenyl)-4-morpholinyl)methanone] |
| – | – | 19800 | 486 | Nc1nc2ccc(C(=O)N3CCOCC3c3ccc(OC(F)F)cc3)cc2c2c1COC2 (racemic) [Example 496, (4-amino-1,3-dihydrofuro[3,4-c]quinolin-8-yl)((3R)-3-(4-(difluoromethoxy)phenyl)-4-morpholinyl)methanone and (4-amino-1,3-dihydrofuro[3,4-c]quinolin-8-yl)((3S)-3-(4-(difluoromethoxy)phenyl)-4-morpholinyl)methanone] |
| – | – | 1060 | 32 | C[C@@H]1COC[C@H](c2ccc(OCC(F)(F)F)nn2)N1C(=O)c1cc2c3c(c(N)nc2cn1)COC3 [Example 563, (4-amino-1,3-dihydrofuro[3,4-c][1,7]naphthyridin-8-yl)((3R,5S)-3-methyl-5-(6-(2,2,2-trifluoroethoxy)-3-pyridazinyl)-4-morpholinyl)methanone] |
| – | – | 1010 | 24 | Cn1ncc2c3cc(C(=O)N4CCOC[C@@H]4c4ccc(S(F)(F)(F)(F)F)cc4)c(F)cc3nc(N)c21 [Example 544, (4-amino-7-fluoro-3-methyl-3H-pyrazolo[3,4-c]quinolin-8-yl)((3S)-3-(4-(pentafluoro-lambda~6~- sulfanyl)phenyl)-4-morpholinyl)methanone] |
| – | – | > 10000 | > 1000 | C[C@H]1COC[C@@H](c2ccc(C(F)(F)F)cn2)N1C(=O)c1ccc2nc(N)c3c(c2c1)COC3 (single isomer, unassigned) [Example 582] |
| – | – | – | 99 | CC1(C)CN(C(=O)c2ccc3nc(N)c4c(c3c2)COC4)[C@@H](c2ccc(C(F)(F)F)cn2)CO1 (single isomer, unassigned) [Example 594] |
| – | – | – | 502 | Nc1nc2cnc(C(=O)N3CCOCC3c3ccc(C4CC4)nc3)cc2c2c1COC2 (racemic) [Example 495, (4-amino-1,3-dihydrofuro[3,4-c][1,7]naphthyridin-8-yl)-[rac-(3S)-3-(6-cyclopropyl-3-pyridyl)morpholin-4-yl]methanone] |
